Values quoted from earlier work as cited in US8313770B2, “Modifying drug release in suspensions of ionic resin systems” (NEOS Therapeutics, LP, priority 2007, dated 2012).

Solubility in water and alcohol: soluble
Compound: COc1ccccc1OCC(O)CO (stereo not shown) [Guaifenesin, 3(2-methoxyphenoxy)-1,2-propanediol]
